The values that follow come from patent US5698546A, “Cyclic polyamines” (Johnson Matthey Public Limted Company, priority 1994, dated 1997).

Where a name gives a salt, the structure may show the parent alone. Read-outs that look alike come from different tables or passages of the source.

In data set [1] the test system is HIV-2 (LAV-2 ROD). Briefly: MT-4 cells challenged with HIV-2, viability by MTT method (antiviral activity). Type of data set: cell-based, Human Immunodeficiency Virus. The conditions noted are these: for IC50: Human immunodeficiency virus 2, MT4, 120 h. (Tetrazolium assays rely on reduction of a dye to a coloured formazan, in cell work by metabolically active cells.)

Data set [2] relates to HIV-1 (HTLV-IIIB). Briefly: microbe, parasite or virus in culture. Type of data set: cell-based.
Data set [3] in a line: cytotoxicity in MT-4 cells, MTT method. Particulars: human.
The nature of data set [4]: octanol/buffer partition coefficient. The format is physicochemical. The conditions noted are these: for logD: octanol/buffer. An excerpt:
The compounds were additionally studied to determine their partition coefficients as between octanol and water, in standard tests at various pH values. A partition coefficient greater than unity at pH 7-9 is generally considered to be a good indication that the compound will be absorbed through the upper gastrointestinal tract when dosed orally.

Data set [5] in a line: solubility in water. Type of data set: physicochemical. The conditions noted are these: dimer believed to be the meso 2R,2'S isomer, characterised by the applicant.
For data set [6] the following is noted: literature (Barefield et al); cited from earlier work.
Data set [7] has as its system cells. The conditions noted are these: in words; cited from earlier work.
Where [8] appears, read: Human immunodeficiency virus 1, IIIB, MT4, 120 h.
[9] abbreviates: CC50, HIV-1 (IIIB) part of Table 1, 5 days at 37° C.
[10] abbreviates: CC50, HIV-2 (ROD) part of Table 1, 5 days at 37° C.
The mark [11] stands for this setting: HIV-2 (ROD), MT-4 cells, 5 days at 37° C., read-out: IC50.
Setting [12] is: Human immunodeficiency virus 1, MT4, 120 h, HIV-1 (IIIB), MT-4 cells, 5 days at 37° C., read-out: IC50.

The IC50 is the concentration that inhibits the measured activity by half. Usually CC50 stands for the concentration giving 50% cytotoxicity. By logD is commonly meant lipophilicity at a set pH, counting ionised and neutral species. With `COc1cc2nc(c1)CNCCCN(Cc1ccc(CN3CCCNCc4cc(OC)cc(n4)CNCCC3)cc1)CCCNC2` [Compound C, 7,7'-[1,4-Phenylenebis(methylene)]bis[15-methoxy-3,7,11,17-tetraazabicyclo-[13.3.1]heptadeca-1(17),13,15-triene] hexahydrobromide dihydrate], the results for the IC50 in data set [1] and in data set [2] (setting [8]) were 9.74 µg/mL and 3.57 µg/mL, respectively. Also, in data set [2] (HIV-1 (IIIB), MT-4 cells), the “SI (Selectivity Index, ratio of CC50 to IC50)” value was 64. For the same compound, the figures for the CC50 at 120 h in data set [3] (setting [9]) and in data set [3] (setting [10]) were 229 µg/mL and more than 250 µg/mL, respectively. The logD in data set [4] (pH 8) is -0.959; in data set [4] (pH 9), -0.0605.
In the case of `O=c1cc2[nH]c(c1)CNCCCN(Cc1ccc(CN3CCCNCc4cc(=O)cc([nH]4)CNCCC3)cc1)CCCNC2` [Compound D, 7,7'-[1,4-Phenylenebis(methylene)]bis-3,7,11,17-tetraazabicyclo-[13.3.1]-heptadeca-13,16-triene-15-one octahydrobromide], the “SI (Selectivity Index, ratio of CC50 to IC50)” value is less than 1 in data set [1] (HIV-2 (ROD), MT-4 cells) and less than 1 in data set [2] (HIV-1 (IIIB), MT-4 cells). For the same compound, the IC50 was more than 250 µg/mL in data set [1] and more than 218 µg/mL in data set [2] (setting [8]). The CC50 at 120 h was more than 218 µg/mL in data set [3] (setting [9]) and more than 250 µg/mL in data set [3] (setting [10]). In addition, the logD in data set [4] (pH 8) was -1.6; in data set [4] (pH 9) it was -0.638.
With `c1cc2nc(c1)CNCCN(Cc1ccc(CN3CCNCc4cccc(n4)CNCCNCc4cccc(n4)C3)cc1)Cc1cccc(n1)CNCCNC2` [Compound K, 17,17'-[1,4-Phenylene-bis(methylene)]bis-3,6,14,17,23,24-hexaazatricyclo[17.3.1.1^8,12] tetracosa-1(23),8,10,12(24),19,21-hexnene octahydrobromide], the “SI (Selectivity Index, ratio of CC50 to IC50)” value in data set [1] (HIV-2 (ROD), MT-4 cells) was less than 1; in data set [2] (HIV-1 (IIIB), MT-4 cells), less than 1. Further, the IC50 in data set [1] was found to be 5.89 µg/mL; in data set [2] (setting [8]), 4.59 µg/mL. In addition, the values for the 50% cytotoxic concentration (CC50) at 120 h in data set [3] (setting [9]) and in data set [3] (setting [10]) were 4.59 µg/mL and 5.89 µg/mL, respectively. Further, the logD in data set [4] (pH 8) was -1.15; in data set [4] (pH 9) it was 0.25.
For the compound `C1CNCCNCCCN[C@H]([C@H]2CNCCCNCCNCCCN2)CNC1` [meso 2R,2'S isomer], in data set [5], the solubility in water entry was “soluble”.
Turning to `C1CNCCNCCCNC(C2CNCCCNCCNCCCN2)CNC1` (stereo not drawn) [2,2'-dimer of cyclam], the solubility in water result in data set [6] is “insoluble in water”.
For `c1cc(CN2CCNCc3cccc(n3)CNCC2)cc(CN2CCNCc3cccc(n3)CNCC2)c1` [Compound H, 6,6'-[1,3-Phenylenebis(methylene)]bis-3,6,9,15-tetraazabicyclo[11.3.1]pentadeca-1(15),11,13-triene hexahydrobromide trihydrate], the “SI (Selectivity Index, ratio of CC50 to IC50)” value is on record as 1.12 × 10^4 in data set [1] (HIV-2 (ROD), MT-4 cells) and 309 in data set [2] (HIV-1 (IIIB), MT-4 cells). Also, the IC50 in data set [1] (setting [11]) was determined as 0.0027 µg/mL; in data set [2] (setting [12]) it was 0.104 µg/mL. Also, the CC50 at 120 h in data set [3] (setting [9]) was found to be 32.1 µg/mL; in data set [3] (setting [10]), 30.7 µg/mL.
As to `c1cc2nc(c1)CNCCN(Cc1ccc(CN3CCNCc4cccc(n4)CNCC3)cc1)CCNC2` [Compound G, 6,6'-[1,4'-Phenylenebis(methylene)]bis-3,6,9,15-tetraazabicyclo[11.3.1]pentadeca-1(15),11,13-triene hexahydromide trihydrate], the “SI (Selectivity Index, ratio of CC50 to IC50)” value in data set [1] (HIV-2 (ROD), MT-4 cells) is 31. Moreover, the IC50 in data set [1] (setting [11]) was found to be 0.15 µg/mL; in data set [2] (setting [12]) it was 0.62 µg/mL. Besides, the values for the CC50 at 120 h in data set [3] (setting [9]) and in data set [3] (setting [10]) were 6 µg/mL and 4.71 µg/mL, respectively.
With `c1cc(CN2CCCNCCNCCCNCC2)ccc1CN1CCCNCCNCCCNCC1` [Compound L, 1,1'-[1,4-phenylenebis(methylene)]bis-1,4,8,11-tetraazacyclotetra-decane octahydrobromide dihydrate, reference compound], the IC50 in data set [1] (setting [11]) was 0.009 µg/mL; in data set [2] (Human immunodeficiency virus 1, IIIB, MT4, 120 h, read-out: IC50), 0.0068 µg/mL. Moreover, the CC50 at 120 h in data set [3] (setting [9]) and in data set [3] (setting [10]) was more than 250 µg/mL in each case. For the same compound, the octanol/buffer partition coefficient in data set [4] (pH 7) is reported as 0.0016; in data set [4] (pH 8), 0.005; in data set [4] (pH 9), 0.16.
In the case of `c1cc2nc(c1)CCNCCCN(Cc1ccc(CN3CCCNCCc4cccc(n4)CCNCCC3)cc1)CCCNCC2` [Compound F, 8,8'-[1,4-Phenylenebis(methylene)]bis-4,8,12,19-tetraazabicyclo[15.3.1]nonadeca-1(19),15,17-triene octahydrobromide heptahydrate], the “SI (Selectivity Index, ratio of CC50 to IC50)” value is 102 in data set [1] (HIV-2 (ROD), MT-4 cells) and 336 in data set [2] (HIV-1 (IIIB), MT-4 cells). Further, the IC50 in data set [1] (setting [11]) turned out to be 1.68 µg/mL; in data set [2] (setting [12]), 0.59 µg/mL. In addition, the CC50 at 120 h in data set [3] (setting [9]) amounted to 199 µg/mL; in data set [3] (setting [10]) it was 171 µg/mL.
With `c1cc(CN2CCCNCCOCCNCCC2)ccc1CN1CCCNCCOCCNCCC1` [Compound J, 8,8'-[1,4-Phenylenebis(methylene)]bis-1-oxa-4,8,12-triazatetradecane-hexahydro bromide trihydrate], the “SI (Selectivity Index, ratio of CC50 to IC50)” value is given as more than 116 in data set [1] (HIV-2 (ROD), MT-4 cells) and more than 54 in data set [2] (HIV-1 (IIIB), MT-4 cells). Also, the values for the half-inhibitory concentration (IC50) in data set [1] and in data set [2] (setting [8]) were 2.15 µg/mL and 4.62 µg/mL, respectively. For the same compound, the CC50 at 120 h in data set [3] (setting [9]) and in data set [3] (setting [10]) was more than 250 µg/mL each time. Further, the figures for the logD in data set [4] (pH 7), in data set [4] (pH 8) and in data set [4] (pH 9) were -2.52, -1.92 and -0.131, respectively.
As for `Clc1cc2nc(c1)CNCCCN(Cc1ccc(CN3CCCNCc4cc(Cl)cc(n4)CNCCC3)cc1)CCCNC2` [Compound B, 7,7'-[1,4-Phenylenebis(methylene)]bis[15-chloro-3,7,11,17-tetraazabicyclo[13.3.1]heptadeca-1(17),13,15-triene]hexahydrobromide monoacetate], the “SI (Selectivity Index, ratio of CC50 to IC50)” value in data set [2] (HIV-1 (IIIB), MT-4 cells) came out at 14. In addition, in data set [2] (setting [8]), the IC50 was 0.89 µg/mL. Further, it took 12.5 µg/mL to reach half-maximal cytotoxicity in data set [3] (setting [9]) (CC50 at 120 h). Further, the pH-dependent lipophilicity (logD) in data set [4] (pH 7) was -1; in data set [4] (pH 8), 0.588; in data set [4] (pH 9), 1.46.
`Cc1cn([C@H]2C[C@H](N=[N+]=[N-])[C@@H](CO)O2)c(=O)[nH]c1=O` [AZT]: in data set [7], the toxicity to cells result is listed as “high toxicity to cells”.
As to `c1cc2nc(c1)CNCCCN(Cc1ccc(CN3CCCNCc4cccc(n4)CNCCC3)cc1)CCCNC2` [Compound A, 7,7'-[1,4-Phenylenebis(methylene)]bis-3,7,11,17-tetraazabicyclo[13.3.1heptadeca-1(17),13,15-trienehexahydrobromide hexahydrate], the results for the IC50 in data set [1] and in data set [2] (setting [8]) were 3.51 µg/mL and 0.719 µg/mL, respectively. In addition, the CC50 at 120 h in data set [3] (setting [9]) and in data set [3] (setting [10]) was more than 250 µg/mL in each case. Moreover, the logD in data set [4] (pH 8) was -0.963; in data set [4] (pH 9) it was 0.713.
In the case of `c1cc2nc(c1)CCNCCN(Cc1ccc(CN3CCNCCc4cccc(n4)CCNCC3)cc1)CCNCC2` [Compound E, 7,7'-[1,4-Phenylenebis(methylene)]bis-4,7,10,17-tetraazabicyclo-[13.3.1]heptadeca-1(17),13,15-triene octahydrobromide tetrahydrate], the IC50 in data set [1] amounted to 0.001 µg/mL; in data set [2] (setting [8]), 0.0014 µg/mL. Besides, the CC50 at 120 h in data set [3] (setting [9]) and in data set [3] (setting [10]) was more than 250 µg/mL each time. Moreover, the values for the logD in data set [4] (pH 7), in data set [4] (pH 8) and in data set [4] (pH 9) were -2.4, -1.44 and 0.479, respectively.
